The results in this text go back to a melting point compilation (Tetko et al.; mined from patent text by program, amines drawn as free bases though some values may be those of a salt).

Where only a bound is given, the exact number is not on record here.

As a reminder, the melting point is the temperature of the solid-liquid transition.

Compound `CN1CCN(C(=O)c2cnn(C)c2C(=O)Nc2ccn3nc(-c4cccc(F)c4)nc3c2)CC1` showed a melting point of 224 to 227 °C.

The compound `Cn1cncc1C(c1ccc(Cl)cc1)c1ccc2c(c1)C(c1cccc(Cl)c1)SCCC(=O)N2` (configuration not stated) yielded a melting point of 199 °C.

Compound `Cc1nc(-c2ccccc2)[nH]c1-c1cnc(-c2ccccc2)nc1` came in with a melting point of 138 °C.

Consider `CCOP(=O)(Cc1ccc(NC(=O)CCc2c(C)noc2-c2ccccc2)cc1)OCC`, for which the melting point lay in the range of 114 to 115 °C.

`CCN(CC)C(=O)NC1CC2c3cccc4[nH]c(C#Cc5ccc(C#N)cc5)c(c34)CC2N(C)C1` (configuration not stated): the melting point is 150 to 151 °C.

Turning to `COc1ccc2c(n1)C1(CO2)C(=O)N(Cc2ccccn2)c2ccccc21` (configuration not stated), the melting point lay within 168 to 171 °C.

`O=C(CCc1ccccn1)Nc1cc(N2CC(c3ccccc3)OC2=O)ccn1` (configuration not stated) registered a melting point of 169 to 171 °C.

As for `CN(C(F)F)S(=O)(=O)c1ccccc1S(N)(=O)=O`, the melting point came out at 128 °C.

`CCOC(=O)c1c(C2CC2)nn(CC)c1Cc1ccc(-c2ccccc2-c2nnn[nH]2)cc1` registered a melting point of 73 to 77 °C.

`O=C1NC(=O)C(CCc2ccc(O)cc2)S1` (configuration not stated): the melting point fell in the range of 175 to 176 °C.

Regarding `Cc1ccc(C(=O)NC(NC(=NC#N)Nc2ccc(Cl)nc2)C(C)(C)C)cc1` (configuration not stated), the melting point lay in the range of 194 to 196 °C.

`CC(SC(=S)c1cc(C(C)(C)C)c(O)c(C(C)(C)C)c1)c1ccccc1` (configuration not stated) gave a melting point of 70 to 72 °C.

Compound `Cc1cc(C)c2nc(NCC3COC(C)(C)O3)n(Cc3nc(C)ccc3O)c2c1` (configuration not stated) had a melting point of 225 °C.

Turning to `CC(C)(C)c1cc(-c2csc(C3(N4CCOCC4)CCOCC3)n2)cc(C(C)(C)C)c1O`, the melting point was 172 to 174 °C.

Compound `O=C1CCC(C(=O)Nc2ccc(-n3nc(C(F)(F)F)cc3C(F)(F)F)cc2)O1` (configuration not stated) came in with a melting point of 172 to 173 °C.

As for `CCCCc1nc(=O)c2cc(I)ccc2[nH]1`, the melting point lay in the range of 258 to 260 °C.

As for `Cc1c(NC(=O)c2ccc(OCCCCF)cc2F)ccc2cc(CN3CCCC3)cnc12`, the melting point came to 140 °C.

Consider `COc1ccc([N+](=O)[O-])cc1CO`, for which the melting point lay in the range of 121 to 122 °C.

As for `O=CNc1c2c(nc3ccccc13)CCc1cnn(-c3ccccc3)c1-2`, the melting point is more than 250 °C.

Compound `Cc1oc(-c2ccccc2)nc1CCOc1ccc(C[C@H](NC(=O)C=Cc2ccc(F)cc2F)C(=O)O)cc1Br` returned a melting point of 221 to 223 °C.

As to `CCC(CC)c1ccc(C=O)c2nc(Oc3c(C)cc(Cl)cc3Cl)n(C)c12`, the melting point is 148 to 149 °C.

With `CCS(=O)c1nsc(NC(=O)N(C)C)c1C#N` (configuration not stated), the melting point lay within 162 to 163 °C.

For `COc1ccc2c(c1)C(C)(CC(=O)O)C(=O)N2C` (configuration not stated), the melting point lay in the range of 120 to 121 °C.

`c1cn(Cc2ccc3c(c2)Cc2c(-c4ccsc4)n[nH]c2-3)nn1` had a melting point of 250 to 254 °C.

In the case of `O=Cc1cc2ccsc2s1`, the melting point fell in the range of 43 to 45 °C.

With `Cc1cccc2c(Nc3cccc(OCCN(CCCl)CCCl)c3)c3cccc(C(=O)NCCN(C)C)c3nc12`, the melting point fell in the range of 129 to 130 °C.

Take `CCOC(=O)[C@H](Cc1ccc(OC)c(OC)c1)NC(=O)c1ccnc(Br)c1`: the melting point lay within 108 to 109 °C.

In turn, `CCc1cc2c(Sc3nnc(C)s3)ncnc2s1` registered a melting point of 132 to 135 °C.

Regarding `O=C(Nc1ccc(C(F)(F)F)cc1)N1N=C2c3ccc(C(F)(F)F)cc3OC3CCCC1C23` (configuration not stated), the melting point is 194 to 195 °C.

In turn, `Oc1cc2c(cc1Cl)OCO2` had a melting point of 95 °C.

On to `CCOC(=O)c1c(C)cc2cnc(-c3ccccc3C(F)(F)F)nc2c1C`, for which the melting point was in the range of 68 to 69 °C.

Regarding `N#CC=C1CCN(c2ccc(N3C[C@H](CNC(=S)CO)OC3=O)cc2F)CC1`, the melting point was in the range of 102 to 105 °C.

`O=P1(c2ccccc2)OCc2ccccc21` (configuration not stated) had a melting point of 99 to 101 °C.

Turning to `CC(C)COc1ccc(C(=O)N/C(=C\c2ccc(OCC(F)(F)F)cc2)C(=O)NCCO)cc1`, the melting point is 176 to 178 °C.

On to `CNC(=O)C1CC(C)(C)Oc2ccc([N+](=O)[O-])cc21` (configuration not stated), for which the melting point fell in the range of 161 to 162 °C.

In turn, `COc1ccc(CCN(C)C(C)(C)CO)cc1` registered a melting point of 40 °C.

The compound `OCCN1CCN(c2cc(Cl)nnc2Cl)CC1` had a melting point of 139 to 141 °C.

With `Cc1ccc(C(=O)Nc2c(NC(=O)CN3CCN(c4ccccc4F)CC3)ccc3c2C(=O)c2ccccc2C3=O)cc1`, the melting point lay within 228 to 229 °C.

In turn, `O=C1c2ccc3c4cccc5cccc(c6ccc(c2c36)C(=O)N1CCCCCO)c54` yielded a melting point of 274 to 276 °C.

`CC1(COc2ccc([N+](=O)[O-])cc2)CC(=O)c2cc(O)c(C(C)(C)C)cc2O1` (configuration not stated) returned a melting point of 205 to 209 °C.

`CCCCCCCCCCCCCCCCCCNC(=O)OCC(CNS(=O)(=O)CCCCl)n1nnnc1C` (configuration not stated) yielded a melting point of 74 to 77 °C.

For the compound `COc1c2c(c(OC)c(OC)c1OC)CCC(CCn1ccccc1=O)CC2`, the melting point was in the range of 84 to 87 °C.

`Cc1c(-c2ccccc2)oc2c(C(=O)OCC3CO3)cccc2c1=O` (configuration not stated) gave a melting point of 103 to 105 °C.

`CS(=O)(=O)c1ccc(-c2cc(C(F)F)nn2C2CCCCC2)cc1F` had a melting point of 138 to 139 °C.

In turn, `Clc1ccc(CCOc2ncnc3ccccc23)cc1` registered a melting point of 57 to 58 °C.

Take `COc1cc(/C=C/C(=O)Nc2ccc(Br)cc2)ccc1F`: the melting point lay in the range of 163 to 165 °C.

For the compound `COC(=O)Cc1ccc2nc(Nc3ccccc3C)oc2c1`, the melting point lay within 128 to 129 °C.

Consider `CCCCCCCCSc1ccc(CC(CO)(CO)NC(C)=O)cc1`, for which the melting point lay within 76 to 78 °C.

The compound `COC(=O)C1=C(C)NC(C)=C(C(=O)NCCOC(=O)N2CCC3(CC2)CC(=O)N(OC)C3=O)C1c1cccc([N+](=O)[O-])c1` (configuration not stated) registered a melting point of 107 to 113 °C.

With `CCOc1nn(-c2ccc(C(F)(F)F)cn2)cc1CCCOc1cc(CCC(=O)O)n(-c2ccccc2)n1`, the melting point fell in the range of 121 to 122 °C.

With `O=C(O)C=CC(=O)c1ccc(Oc2cccc(Cl)c2)cc1`, the melting point lay within 110 to 111 °C.

The compound `Cc1nc(NC(=O)c2cnn3c(C(F)F)cc(-c4ccc(C(F)(F)F)cc4)nc23)sc1S(=O)(=O)NC(C)(CO)CO` displayed a melting point of 248 °C.

For the compound `Cc1ccc(C)c([PH](=O)O)c1`, the melting point fell in the range of 73 to 80 °C.

`CS(=O)(=O)c1ccc(-c2nn3c(-c4ccc(F)cc4)coc3c2-c2ccc(F)cc2)cc1`: the melting point lay in the range of 200 to 202 °C.

`COc1cc(C)nc2ccc(NC(=O)C=Cc3ccccc3Cl)cc12` registered a melting point of 228 to 229 °C.

Turning to `CC(C)(C)c1cc(-c2csc(CO)n2)cc(C(C)(C)C)c1O`, the melting point lay in the range of 126 to 127 °C.

In the case of `CC(C)(C)OC(=O)N1CCC[C@H](O)[C@@H]1c1ccc(Cl)cc1` (relative stereo), the melting point lay in the range of 95 to 96 °C.

Consider `O=C(NCCO)/C(=C/c1ccc(OC(F)(F)F)cc1)NC(=O)c1ccc(Oc2ccc(C(F)(F)F)cc2)cc1`, for which the melting point is 84 to 86 °C.

In the case of `N#Cc1ccc2[nH]c(C(=O)C34CC5CC(CC(C5)C3)C4)cc2c1`, the melting point fell in the range of 250 to 252 °C.

Compound `COc1cc(NC(C)=O)c(Cl)cc1C(=O)CCCCN1CCCCC1` displayed a melting point of 74 to 75 °C.

In turn, `CC(C)(C(N)=O)c1ccc(C(=O)O)cc1` returned a melting point of 218 to 219 °C.

As to `N#Cc1ccc(C(=C2CCCCCC2)c2nc[nH]n2)cc1`, the melting point is 79 to 80 °C.

As to `COC(=O)c1ccccc1SC1=C(O)CC(CCC(C)C)(c2ccccc2)OC1=O` (configuration not stated), the melting point lay within 115 to 116 °C.

In turn, `COc1cc(Nc2c(C#N)cnc3cc(/C=C/CCN4CCCC4)c(OC)cc23)c(Cl)cc1Cl` displayed a melting point of 158 to 159 °C.

On to `CC(C)S(=O)(=O)c1ccc2c(c1)nc(CC(C)(C)C)n2CCN1CCOCC1`, for which the melting point amounted to 151 °C.

For the compound `CCCc1cccc2c(C=O)cc(OC)c(O)c12`, the melting point lay within 128 to 129 °C.

As to `CCOc1cc2c(c3c1OC(C)(C)C3)C(c1cccc(NC(N)=O)c1)=NC(C)(C)C2`, the melting point is 202 to 205 °C.

In turn, `O=c1[nH]c(-c2csc3ccccc23)nc2ccc(N3CCCCC3)cc12` registered a melting point of more than 300 °C.

The compound `O=C(CC(NC(=O)C(F)(F)F)C(=O)O)c1ccc2c(c1)CCO2` (configuration not stated) registered a melting point of 160 to 162 °C.

Take `CC(C(=O)N(C)C)n1ccc(-c2cccc([N+](=O)[O-])c2)n1` (configuration not stated): the melting point fell in the range of 117 to 119 °C.

Regarding `CCCCc1oc2ccccc2c1-c1ncc(-c2ccc3cc(OC)ccc3c2)o1`, the melting point fell in the range of 169 to 171 °C.

Compound `CC(C)(C)OC(=O)n1ccc2cc(-c3ccccc3)ccc21` yielded a melting point of 105 to 106 °C.

As to `Cc1ccc2c(c1)C(C(=O)O)c1cc(Br)ccc1CO2` (configuration not stated), the melting point was 168 to 170 °C.

Compound `CC(c1ccc(-c2ccccc2)c(F)c1)c1csc(NCCc2ccccc2)n1` (configuration not stated) yielded a melting point of 74.5 to 75.5 °C.

As to `O=C(O)c1ccc2c(c1)C(=O)C(=Cc1cccs1)O2`, the melting point fell in the range of 310 to 312 °C.

`CC(C)C[C@H](NC(=O)OCC1CC=CCC1)C(=O)N[C@@H](Cc1ccccc1)C(=O)CSCc1ccco1` (some centres not stated) came in with a melting point of 85 to 87 °C.

Regarding `CCCNc1ccc(Cl)cc1Cl`, the melting point was determined as 121 °C.

`COc1cc(CCN(C)Cc2ccc(OC)c(OC)c2)ccc1NC(=O)c1cccc2c(=O)c3cccc(F)c3[nH]c12` showed a melting point of 161 to 162 °C.

As to `O=C(O)c1cc(F)cc(-c2cccc3cc(Cc4ccc(F)c(Cl)c4)sc23)c1`, the melting point was in the range of 135 to 137 °C.

Consider `Cc1c(NC(=O)CCCC(=O)c2ccc(Cl)cc2)ccc2cc(CN3CCCC3)cnc12`, for which the melting point fell in the range of 173 to 174 °C.

In the case of `CNC(=O)C1=CC(CF)(CF)Oc2ccc(C#N)cc21`, the melting point fell in the range of 206 to 207 °C.

`CCCCCCCCCCCCCCCCC(COC(C)=O)(COC(C)=O)NC(C)=O`: the melting point lay in the range of 84 to 86 °C.

With `COc1ccc2c(c1)CCN2c1cccc(C#N)c1`, the melting point was in the range of 92.5 to 93.5 °C.

The compound `CC(C)(O)c1ccc(CNC(=O)c2cccnc2Oc2ccc3c(c2)OCO3)cc1` returned a melting point of 118 to 120 °C.

`Cc1cc(=O)on1C(=O)c1ccc(Cl)cc1Cl`: the melting point lay within 137 to 139 °C.

The compound `CC(C)n1c(Cl)nc2ccccc21` showed a melting point of 58 to 60 °C.

The compound `CC(=O)N1CCN(CCSc2ccnc(CSc3nc4ccccc4[nH]3)c2C)CC1` gave a melting point of 129 to 131 °C.
